The first series concerns HEK-CMV-Luc2-Hygro cells. Description: High-throughput genome-wide siRNA screen and validation screen for luciferase expression. The format is cell-based, human. As to conditions: Table 4; primary screen, 72 h, negative control = 100%. Put shortly: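 HEK cells with CMV-driven luciferase were reverse-transfected with 0.8 pmol siRNA per well (3 per gene) via RNAiMax and grown 72 h at 37 °C. Duplicate wells read for luciferase (ONE-Glo) and viability (CellTiter-Glo). Values given as % of plate negative-control median with MAD-based z-scores; hits with ≥2 siRNAs at z>3 retested using 3 new siRNAs.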
Consider “133 (GAACUUCAAUGGAAAACAUTT; chemistry not given here; listed as Homo sapiens) [compound 133]”, for which the “Viable cell density (%)” value is 63.577% and the “per cell luciferase yield (%)” value came to 250.367%.
On the same counts, the results for “134 (GAUCGUUUGAGAGAACAAATT; chemistry not given here; listed as Homo sapiens) [compound 134]” are 77.107% and 210.336%.
On the same counts, the results for “135 (CAGGUAGUGUAAGCCCUCATT; chemistry not given here; listed as Homo sapiens) [compound 135]” are 66.872% and 302.994%.
With “136 (AGGUUACAGAGGACUCAGATT; chemistry not given here; listed as Homo sapiens) [compound 136]”, the “Viable cell density (%)” value worked out at 49.189% and the “per cell luciferase yield (%)” value is reported as 299.886%.
The corresponding values for “137 (GAACCGUCGCUACAAGACATT; chemistry not given here; listed as Homo sapiens) [compound 137]” are 88.616% and 212.905%.
With “138 (CCCUCCUACUAUUACCCGUTT; chemistry not given here; listed as Homo sapiens) [compound 138]”, the “Viable cell density (%)” value is 96.869% and the “per cell luciferase yield (%)” value is given as 162.999%.
On the same counts, the results for “139 (GGAGAUAUGCAAAGCAGAATT; chemistry not given here; listed as Homo sapiens) [compound 139]” are 83.011% and 194.043%.
The corresponding values for “140 (GUCCGAGUGUGGUUCUGUATT; chemistry not given here; listed as Homo sapiens) [compound 140]” are 85.820% and 180.401%.
The corresponding values for “141 (AGAGGACCCAGAUUGUCUATT; chemistry not given here; listed as Homo sapiens) [compound 141]” are 97.298% and 183.386%.
As for “142 (AAGUCAACAUAGCCCGAAATT; chemistry not given here; listed as Homo sapiens) [compound 142]”, the “Viable cell density (%)” value is on record as 111.487% and the “per cell luciferase yield (%)” value was found to be 145.707%.
On the same counts, the results for “143 (GCAAAGAUAGCGAGAAAUATT; chemistry not given here; listed as Homo sapiens) [compound 143]” are 75.599% and 193.846%.
The corresponding values for “144 (GGAUCACGCAGCUCAAGAUTT; chemistry not given here; listed as Homo sapiens) [compound 144]” are 91.538% and 161.634%.
On the same counts, the results for “145 (CCAGUUCGACCUGAACAAATT; chemistry not given here; listed as Homo sapiens) [compound 145]” are 85.750% and 176.019%.
As to “146 (GACCUAUACUCAUUCUGCATT; chemistry not given here; listed as Homo sapiens) [compound 146]”, the “Viable cell density (%)” value is given as 83.351% and the “per cell luciferase yield (%)” value is 171.308%.
On the same counts, the results for “147 (GUUUCGACCUCGAUCCAGATT; chemistry not given here; listed as Homo sapiens) [compound 147]” are 61.490% and 256.085%.
The corresponding values for “148 (CAGCCUCACCAAGCACAAATT; chemistry not given here; listed as Homo sapiens) [compound 148]” are 85.866% and 167.413%.
The corresponding values for “149 (CGACCAUCAUGGAAAACAUTT; chemistry not given here; listed as Homo sapiens) [compound 149]” are 57.472% and 294.800%.
As for “150 (CGCUUUAACUGGAAGCUCUTT; chemistry not given here; listed as Homo sapiens) [compound 150]”, the “Viable cell density (%)” value is on record as 103.662% and the “per cell luciferase yield (%)” value is 146.993%.
The corresponding values for “151 (GAAACUGCAUGAGAAGACATT; chemistry not given here; listed as Homo sapiens) [compound 151]” are 59.084% and 288.857%.
As to “152 (CGAUGUUCGUGGACAUUCUTT; chemistry not given here; listed as Homo sapiens) [compound 152]”, the “Viable cell density (%)” value was 80.013% and the “per cell luciferase yield (%)” value was 234.608%.
Regarding “153 (CACUUUCCUGGGUAUUGUATT; chemistry not given here; listed as Homo sapiens) [compound 153]”, the “Viable cell density (%)” value was 87.831% and the “per cell luciferase yield (%)” value is reported as 171.072%.
The corresponding values for “154 (CAACAGUACUUACCGAUGUTT; chemistry not given here; listed as Homo sapiens) [compound 154]” are 115.513% and 141.760%.
On the same counts, the results for “155 (GCCUUGCUCCGAACCUUCATT; chemistry not given here; listed as Homo sapiens) [compound 155]” are 94.839% and 169.972%.
On the same counts, the results for “156 (GAUUAUCCUUGUACUUUGATT; chemistry not given here; listed as Homo sapiens) [compound 156]” are 101.904% and 141.842%.
Turning to “157 (GAACAGCUGGGAACCUUCATT; chemistry not given here; listed as Homo sapiens) [compound 157]”, the “Viable cell density (%)” value was found to be 60.645% and the “per cell luciferase yield (%)” value is on record as 254.007%.
Consider “158 (CUUCGACAGUACUUCCGGATT; chemistry not given here; listed as Homo sapiens) [compound 158]”, for which the “Viable cell density (%)” value was 104.020% and the “per cell luciferase yield (%)” value turned out to be 161.613%.
On the same counts, the results for “159 (GGAGUUCUUUGAUGAGAAATT; chemistry not given here; listed as Homo sapiens) [compound 159]” are 96.357% and 157.243%.
The corresponding values for “160 (GGACCAAGCCCUAAAGGAATT; chemistry not given here; listed as Homo sapiens) [compound 160]” are 68.989% and 220.902%.
Turning to “161 (GCAGUGGACAUAGAAGAGATT; chemistry not given here; listed as Homo sapiens) [compound 161]”, the “Viable cell density (%)” value worked out at 110.815% and the “per cell luciferase yield (%)” value is 140.658%.
On the same counts, the results for “162 (CGAUAUGCUUUUCUACGUUTT; chemistry not given here; listed as Homo sapiens) [compound 162]” are 76.131% and 235.013%.
In the case of “163 (CCAGCGAUACAACUCCUAUTT; chemistry not given here; listed as Homo sapiens) [compound 163]”, the “Viable cell density (%)” value was 83.636% and the “per cell luciferase yield (%)” value amounted to 176.821%.
On the same counts, the results for “164 (GCAGGCACAUGGUUCCUCUTT; chemistry not given here; listed as Homo sapiens) [compound 164]” are 83.512% and 259.478%.
For the substance “165 (AGGUCAAUGUGACUUUCCATT; chemistry not given here; listed as Homo sapiens) [compound 165]”, the “Viable cell density (%)” value is 105.029% and the “per cell luciferase yield (%)” value was found to be 161.785%.
As for “166 (CCAAGUCCAAUGCACCUGUTT; chemistry not given here; listed as Homo sapiens) [compound 166]”, the “Viable cell density (%)” value is on record as 76.798% and the “per cell luciferase yield (%)” value is on record as 186.195%.
Take “167 (CCUGGACAGUUUGAAGCAATT; chemistry not given here; listed as Homo sapiens) [compound 167]”: the “Viable cell density (%)” value stood at 88.009% and the “per cell luciferase yield (%)” value is 174.946%.
On the same counts, the results for “168 (GCUUCCUCUUGGACCUCAATT; chemistry not given here; listed as Homo sapiens) [compound 168]” are 78.156% and 185.175%.
Regarding “169 (GCGGAAAAGGUAUCCCUCATT; chemistry not given here; listed as Homo sapiens) [compound 169]”, the “Viable cell density (%)” value came to 80.173% and the “per cell luciferase yield (%)” value is 184.608%.
The corresponding values for “170 (CCAACAAGGAAGACGAAAATT; chemistry not given here; listed as Homo sapiens) [compound 170]” are 267.320% and 284.062%.
The corresponding values for “171 (CCCUGUUCAUUAUAAGUCUTT; chemistry not given here; listed as Homo sapiens) [compound 171]” are 279.253% and 272.683%.

The series is the same for the next values; noted with them: Table 6; polyamine pathway gene siRNAs.
“155 (GCCUUGCUCCGAACCUUCATT; chemistry not given here; listed as Homo sapiens) [compound 155]”: the “Luciferase activity (%)” value is 161.1%, the “Per cell luciferase yield (%)” value was found to be 169.9% and the “Viable cell number (%)” value was 94.8%.
Turning to “156 (GAUUAUCCUUGUACUUUGATT; chemistry not given here; listed as Homo sapiens) [compound 156]”, the “Luciferase activity (%)” value came to 144.5%, the “Per cell luciferase yield (%)” value is listed as 141.8% and the “Viable cell number (%)” value was found to be 101.9%.
